According to ChEMBL document CHEMBL1201862, “PubChem BioAssay data set” (2004):
Active and inactive are the calls of the source.

Legend:
[1] = A549 cell cytotoxicity, dose response, cytotoxicity control, plate reader, cherry-pick, antagonist series (AID 743412); assay type: functional, cell-based
[2] = toxicity toward HepG2 liver cells – cell-based, plate reader, cherry-pick, antagonist series, cytotoxicity control, dose response (AID 743416); assay type: functional
[3] = blockers of bursicon-stimulated LGR2 cAMP reporter – cell-based, HEK293, CRE-luciferase reporter, cherry pick, set 2, dose response (AID 743343); assay type: functional;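 also: transfected cells were stimulated with diluted bursicon conditioned medium after compound addition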
HEK293 = test: EBV LMP1 TES2 canonical NF-kB signalling blockers – cell-based, HEK293, luciferase, cherry-pick, dose response (AID 588343); assay type: functional; settings: Homo sapiens
[4] = blockade of melanocortin 4 receptor signaling – cell-based, plate reader, cherry pick, counter-screen for LGR2 antagonist project, dose response (AID 743444); assay type: functional;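 also: transfected HEK 293 cells stimulated with alpha-MSH peptide; potency of inhibitors of the alpha-MSH evoked signal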
[5] = target: Disintegrin and metalloproteinase domain-containing protein 17 (Homo sapiens, UniProt P78536); test: inhibition of ADAM17 substrate cleavage – biochemical, quenched FRET substrate, counter-screen for ADAM10 exosite inhibitor project, dose response (AID 743253)
[6] = potency of ADAM10 substrate cleavage blockers – biochemical, QFRET, dose response (AID 743254);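 also: ADAM10 enzyme with the DM2 quenched FRET peptide as substrate; EDANS fluorescence gain as the protease cuts the substrate; inhibitor potency against ADAM10 proteolytic activity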
[7] = target: Peroxisome proliferator-activated receptor gamma/Nuclear receptor coactivator 1 (Homo sapiens, UniProt P37231); test: TR-FRET dose response biochemical High Throughput Screening assay for agonists of the steroid receptor coactivator 1 (SRC-1) recruitment by the peroxisome proliferator-activated receptor gamma (PPAR gamma): non-selective agonists. [Related pubchem assays (depositor defined):AID1300, AID1808, AID504735, AID631]; assay type: protein assay
[8] = target: Peroxisome proliferator-activated receptor gamma/Nuclear receptor coactivator 2 (Homo sapiens, UniProt P37231); test: (§1) TR-FRET dose response biochemical High Throughput Screening assay for agonists of the steroid receptor coactivator 2 (SRC-2) recruitment by the peroxisome proliferator-activated receptor gamma (PPAR gamma): non-selective agonists. [Related pubchem assays: 1297, 1032 ]; assay type: functional
[9] = target: Peroxisome proliferator-activated receptor gamma/Nuclear receptor coactivator 3 (Homo sapiens, UniProt P37231); test: as §1, with “3 (SRC-3)” for “2 (SRC-2)”, “1301 (Confirmation screen.), 1048 (Primary screen.)]” for “1297, 1032 ]”; assay type: functional
fMet-Leu-Phe receptor = target: T1, fMet-Leu-Phe receptor (Homo sapiens, UniProt P21462); test: formyl peptide receptor binders – dose response (AID 519); assay type: functional
T1 sequence (P21462 whole entry): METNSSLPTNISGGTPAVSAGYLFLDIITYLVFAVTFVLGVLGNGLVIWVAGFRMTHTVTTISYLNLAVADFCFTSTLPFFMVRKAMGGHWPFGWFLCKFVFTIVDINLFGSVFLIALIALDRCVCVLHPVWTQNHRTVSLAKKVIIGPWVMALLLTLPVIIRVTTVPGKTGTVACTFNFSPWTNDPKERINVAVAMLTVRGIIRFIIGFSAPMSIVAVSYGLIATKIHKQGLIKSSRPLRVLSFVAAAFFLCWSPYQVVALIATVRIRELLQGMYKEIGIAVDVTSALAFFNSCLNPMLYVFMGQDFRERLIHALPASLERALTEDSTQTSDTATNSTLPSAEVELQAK

[10] = target: T2, Trace amine-associated receptor 1 (Homo sapiens, UniProt Q96RJ0); test: Counterscreen for agonists of the human trace amine associated receptor 1 (hTAAR1): Fluorescence-based cell-based high throughput dose response assay to identify hTAAR1 agonist that also desensitize TAAR1 receptor response.; assay type: functional
T2 sequence (Q96RJ0 whole entry): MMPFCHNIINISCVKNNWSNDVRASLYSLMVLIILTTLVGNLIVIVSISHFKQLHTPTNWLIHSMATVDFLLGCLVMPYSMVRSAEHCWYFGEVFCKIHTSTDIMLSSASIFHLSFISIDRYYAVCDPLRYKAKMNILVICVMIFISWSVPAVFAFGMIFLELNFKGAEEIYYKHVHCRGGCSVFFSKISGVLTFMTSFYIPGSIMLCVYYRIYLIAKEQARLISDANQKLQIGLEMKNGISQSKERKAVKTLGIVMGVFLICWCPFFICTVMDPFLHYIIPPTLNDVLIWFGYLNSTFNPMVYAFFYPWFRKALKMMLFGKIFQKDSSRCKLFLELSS

cells [11] = assay type: functional, cell-based
cells [12] = assay type: functional, cell-based; remark: listed apart in the source
[13] = target: T2, Trace amine-associated receptor 1; test: Fluorescence-based cell-based high throughput dose response assay to identify agonists of the human trace amine associated receptor 1 (TAAR1).; assay type: functional
[14] = target: DNA dC->dU-editing enzyme APOBEC-3G (Homo sapiens, UniProt Q9HC16); test: Dose Response confirmation of small molecule APOBEC3G DNA Deaminase Inhibitors via a fluorescence-based single-stranded DNA deaminase assay. [Related pubchem assays (depositor defined):AID493012, AID493028]; assay type: functional
DNA dC->dU-editing enzyme APOBEC-3G, sequence (Q9HC16 whole entry): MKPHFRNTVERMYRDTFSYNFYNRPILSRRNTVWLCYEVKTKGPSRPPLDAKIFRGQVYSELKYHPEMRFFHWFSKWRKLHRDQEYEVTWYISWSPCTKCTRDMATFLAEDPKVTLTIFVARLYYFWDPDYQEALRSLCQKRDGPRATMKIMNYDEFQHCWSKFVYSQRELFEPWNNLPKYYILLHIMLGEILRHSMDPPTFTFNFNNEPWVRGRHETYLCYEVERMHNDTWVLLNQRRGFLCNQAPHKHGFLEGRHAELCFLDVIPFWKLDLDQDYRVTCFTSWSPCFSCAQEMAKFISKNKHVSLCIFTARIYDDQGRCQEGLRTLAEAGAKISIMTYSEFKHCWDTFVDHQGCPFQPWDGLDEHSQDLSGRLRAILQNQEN

Disintegrin and metalloproteinase domain-containing protein 17, sequence (P78536 whole entry, the tested form may be a part): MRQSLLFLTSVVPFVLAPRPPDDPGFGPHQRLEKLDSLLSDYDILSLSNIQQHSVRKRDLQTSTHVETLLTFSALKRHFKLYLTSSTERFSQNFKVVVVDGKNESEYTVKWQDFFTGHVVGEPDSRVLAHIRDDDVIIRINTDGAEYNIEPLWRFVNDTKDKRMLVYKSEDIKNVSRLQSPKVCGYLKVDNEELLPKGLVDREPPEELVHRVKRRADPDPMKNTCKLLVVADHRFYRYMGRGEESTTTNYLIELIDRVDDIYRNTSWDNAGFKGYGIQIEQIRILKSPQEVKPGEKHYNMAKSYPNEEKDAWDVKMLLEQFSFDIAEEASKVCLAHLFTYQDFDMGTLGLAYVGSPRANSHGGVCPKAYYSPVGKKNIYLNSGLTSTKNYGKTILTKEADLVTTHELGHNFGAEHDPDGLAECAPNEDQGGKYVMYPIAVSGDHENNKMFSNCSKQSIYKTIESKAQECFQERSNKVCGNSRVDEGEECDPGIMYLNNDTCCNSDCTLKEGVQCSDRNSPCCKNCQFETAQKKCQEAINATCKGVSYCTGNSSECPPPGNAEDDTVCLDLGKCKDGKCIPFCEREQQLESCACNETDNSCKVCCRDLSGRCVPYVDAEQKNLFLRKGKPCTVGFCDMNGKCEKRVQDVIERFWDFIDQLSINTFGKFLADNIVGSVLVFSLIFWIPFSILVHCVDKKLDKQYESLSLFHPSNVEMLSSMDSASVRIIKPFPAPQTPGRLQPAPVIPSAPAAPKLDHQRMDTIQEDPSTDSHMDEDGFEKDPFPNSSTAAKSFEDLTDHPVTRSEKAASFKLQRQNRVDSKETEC
Peroxisome proliferator-activated receptor gamma/Nuclear receptor coactivator 2, sequence (P37231 whole entry): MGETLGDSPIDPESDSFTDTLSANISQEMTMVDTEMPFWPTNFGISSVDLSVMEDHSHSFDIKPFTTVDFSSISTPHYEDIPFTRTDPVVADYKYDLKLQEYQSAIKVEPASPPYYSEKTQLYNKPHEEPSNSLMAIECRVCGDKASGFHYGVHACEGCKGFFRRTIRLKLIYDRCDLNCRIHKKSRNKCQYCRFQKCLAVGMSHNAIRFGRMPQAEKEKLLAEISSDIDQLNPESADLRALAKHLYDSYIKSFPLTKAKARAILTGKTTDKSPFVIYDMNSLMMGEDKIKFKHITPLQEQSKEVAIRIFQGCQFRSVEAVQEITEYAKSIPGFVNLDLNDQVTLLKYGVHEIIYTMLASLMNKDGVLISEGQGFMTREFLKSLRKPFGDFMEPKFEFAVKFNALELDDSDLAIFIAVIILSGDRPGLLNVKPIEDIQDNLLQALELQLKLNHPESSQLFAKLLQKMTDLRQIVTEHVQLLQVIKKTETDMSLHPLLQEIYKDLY
Peroxisome proliferator-activated receptor gamma/Nuclear receptor coactivator 2, sequence (Q15596 whole entry, further chain): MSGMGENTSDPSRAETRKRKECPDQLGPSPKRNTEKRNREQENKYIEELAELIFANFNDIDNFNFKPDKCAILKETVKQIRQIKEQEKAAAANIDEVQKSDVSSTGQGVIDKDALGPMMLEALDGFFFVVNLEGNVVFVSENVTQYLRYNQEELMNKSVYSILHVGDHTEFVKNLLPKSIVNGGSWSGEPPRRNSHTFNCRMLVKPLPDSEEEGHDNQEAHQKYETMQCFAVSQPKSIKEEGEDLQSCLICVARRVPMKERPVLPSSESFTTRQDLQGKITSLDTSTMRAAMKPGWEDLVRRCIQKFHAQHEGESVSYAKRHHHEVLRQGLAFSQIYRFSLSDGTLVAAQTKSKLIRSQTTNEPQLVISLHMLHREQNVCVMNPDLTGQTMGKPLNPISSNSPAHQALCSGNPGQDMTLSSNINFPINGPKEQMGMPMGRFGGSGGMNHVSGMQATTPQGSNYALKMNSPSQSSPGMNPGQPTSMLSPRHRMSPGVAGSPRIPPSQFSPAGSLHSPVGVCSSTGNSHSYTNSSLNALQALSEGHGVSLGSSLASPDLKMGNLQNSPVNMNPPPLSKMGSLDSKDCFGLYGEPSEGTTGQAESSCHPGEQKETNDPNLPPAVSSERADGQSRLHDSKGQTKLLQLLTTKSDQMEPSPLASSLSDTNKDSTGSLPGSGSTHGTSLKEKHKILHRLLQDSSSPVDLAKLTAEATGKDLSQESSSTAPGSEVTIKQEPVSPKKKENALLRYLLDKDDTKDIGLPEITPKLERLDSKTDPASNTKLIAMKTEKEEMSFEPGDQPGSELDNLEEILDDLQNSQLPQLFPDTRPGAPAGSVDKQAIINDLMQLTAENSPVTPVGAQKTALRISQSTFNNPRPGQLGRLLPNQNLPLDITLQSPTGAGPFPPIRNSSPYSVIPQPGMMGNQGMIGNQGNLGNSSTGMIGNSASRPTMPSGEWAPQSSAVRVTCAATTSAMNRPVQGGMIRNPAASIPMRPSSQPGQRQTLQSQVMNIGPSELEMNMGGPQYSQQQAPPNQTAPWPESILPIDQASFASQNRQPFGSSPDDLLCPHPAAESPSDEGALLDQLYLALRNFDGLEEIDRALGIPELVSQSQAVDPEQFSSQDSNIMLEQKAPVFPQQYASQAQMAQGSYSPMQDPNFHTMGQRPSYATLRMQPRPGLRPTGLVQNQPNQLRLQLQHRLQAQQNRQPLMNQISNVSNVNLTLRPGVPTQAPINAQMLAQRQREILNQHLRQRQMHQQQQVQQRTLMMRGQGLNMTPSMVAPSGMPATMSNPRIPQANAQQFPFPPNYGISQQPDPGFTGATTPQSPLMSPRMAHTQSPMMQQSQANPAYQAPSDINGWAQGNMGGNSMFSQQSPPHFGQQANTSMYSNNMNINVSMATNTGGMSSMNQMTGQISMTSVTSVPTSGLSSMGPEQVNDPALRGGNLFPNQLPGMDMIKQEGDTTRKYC

In the case of Cc1ccc(C(=O)NCCc2cccs2)cc1, the AC50 [1] is reported as > 52 µM (inactive), the AC50 [2] is reported as > 52 µM (inactive) and the AC50 [3] is reported as 3.13 µM (active). The AC50 (HEK293) was 2.28 µM (active) and the AC50 [4] was 3.74 µM (active).

In the case of N#Cc1c(NC(=O)CCn2cnc3ccccc3c2=O)oc(-c2ccccc2)c1-c1ccccc1, the IC50 [5] is reported as > 69.5 µM (inactive) and the IC50 [6] is reported as > 69.5 µM (inactive).

In the case of COc1cccc(C2C(C(=O)c3ccc(OC)c(OC)c3)=C(O)C(=O)N2c2cc(C)on2)c1 (stereo unspecified), the EC50 [7] is reported as > 79.4 µM (inactive), the EC50 [8] is reported as > 79.4 µM (not active) and the EC50 [9] is reported as > 79.4 µM (not active). The Ki (fMet-Leu-Phe receptor) was > 66.7 µM (inactive).

For CC/C(NCCc1ccccc1)=C1/C(=O)NC(=O)N(C2CCCCC2)C1=O, the IC50 [10] was 6.23 µM (active), the IC50 (cells [11]) was > 29.9 µM (inactive) and the EC50 (cells [12]) was > 29.9 µM (inactive). The EC50 [13] was 2.87 µM (active).

For Cc1cccc(C(CC(=O)NCCc2ccccc2)c2ccccc2)c1O (stereo unspecified), the IC50 [10] was 4.62 µM (active), the IC50 (cells [11]) was > 29.9 µM (inactive) and the EC50 (cells [12]) was > 29.9 µM (inactive). For the same molecule, the EC50 [13] was 3.5 µM (active).

For CCN(CC)c1ccc(NC(=O)COc2ccccc2C)cc1S(=O)(=O)Nc1ccccc1OC, the IC50 [5] was > 69.5 µM (inactive), the IC50 [6] was > 69.5 µM (inactive) and the IC50 [14] was 70.1 µM (active).

In the case of CN(CCc1ccccc1)c1cc2c(c3c1ccn3C)C1CCC2O1 (stereo unspecified), the IC50 [10] is reported as 5.22 µM (active), the IC50 (cells [11]) is reported as > 29.9 µM (inactive) and the EC50 (cells [12]) is reported as > 29.9 µM (inactive). For the same molecule, the EC50 [13] was 1.18 µM (active).
